# Source: patent publication US20220031800A1, “PEPTIDES FOR TREATING NON-EXUDATIVE MACULAR DEGENERATION AND OTHER DISORDERS OF THE EYE” (Allegro Pharmaceuticals, LLC, priority 2019, published 2022)
# Square brackets hold non-standard residues; d marks the D form. Peptide text beside a SMILES is read from it. Cya = N[C@@H](CS(=O)(=O)O)C(=O)O
# How the values were obtained:
# [1] = test system: study eye of subjects with intermediate non-exudative AMD; test: SD-OCT Analysis 1 (thickness and volume of retinal layers, EZ defect area, GA); format: in vivo, human
# Experimental: Numerous study assessments were conducted at various time points throughout the study. Included among these study assessments were; refractive eye examinations, determinations of BCVA AND low-luminance BCVA, Lanthony D-15 color vision test, measurement of intraocular pressure (IOP), Indirect ophthalmoscopy/dilated fundus examinations and spectral-domain optical coherence tomography (SD-OCT). Also, blood and saliva samples were obtained from each subject for genetic analysis. The above-listed study assessments were performed at the time points indicated in Table 1, below: The OCT scans were analyzed by two (2) unrelated experts. The mean thickness and mean volume of retinal subfields and layer segments were analyzed at screening (pre-treatment) and at Week 12 for Group 1 subjects and at Week 32 for Group 2 subjects. In addition to the quantitative analysis of OCT images, a qualitative assessment of the OCT images at baseline (pre-treatment) was performed to identify GA anywhere in the retina, in the fovea (1-mm central subfield), and in the foveal center. Quantitative analysis of the OCT images was also performed to measure changes in anatomical measurements over time.
# [2] = test system: primary mouse retinal neuron cells; test: Trypan blue viability of primary mouse retinal neuron cells exposed to kainic acid; format: cell-based, CD1 mice; details: 1.0 mg/mL risuteganib alone
# Experimental: Purpose: Investigate neuroprotective properties of risuteganib in primary mouse retinal neuron cells exposed to kainic acid, a neuroexcitatory compound that activates glutamate receptors, resulting in overstimulation and cell death.
# Methods: Fresh retina were collected from CD1 mice and then mechanically dissociated with sterile Pasteur pipette. Cell suspensions were then dispensed into petri dish and incubated for 6 hours. Cells were then exposed to the experimental conditions: (1) untreated control, (2) 1.0 mg/mL risuteganib, (3) 500 μM kainic acid (KA), and (4) 1.0 mg/mL risuteganib for 24 hours before 500 μM kainic acid exposure. 8 hours after kainic acid treatment, dead and live cell numbers were measured using Trypan blue exclusion assay on a hemocytometer.
# [3] = baseline to Week 32, risuteganib arm n = 22
# [4] = risuteganib arm (Week 32) vs sham arm (Week 12)
compound,measurement,setting,value
"C[C@@H](O)[C@H](NC(=O)[C@H](CS(=O)(=O)O)NC(=O)CNC(=O)[C@H](CCCNC(=N)N)NC(=O)CN)C(=O)N1CCC[C@H]1C(=O)O [risuteganib, Glycyl-L-arginylglycyl-3-sulfo-L-alanyl-L-threonyl-L-proline] (H-GRG[Cya]TP-OH)","Mean change in total volume: Inner retina, inferior subfield",[1]; [3],0.000 mm^3
same,"Mean change in total volume: Inner retina, nasal subfield",[1]; [3],−0.001 mm^3
same,"Mean change in total volume: Inner retina, superior subfield",[1]; [3],−0.005 mm^3
same,"Mean change in total volume: Inner retina, temporal subfield",[1]; [3],0.000 mm^3
same,"Mean change in total volume: Outer retina, central subfield",[1]; [3],−0.003 mm^3
same,"Mean change in total volume: Outer retina, inferior subfield",[1]; [3],−0.004 mm^3
same,"Mean change in total volume: Outer retina, nasal subfield",[1]; [3],−0.002 mm^3
same,"Mean change in total volume: Outer retina, superior subfield",[1]; [3],−0.000 mm^3
same,"Mean change in total volume: Outer retina, temporal subfield",[1]; [3],−0.004 mm^3
same,"Mean change in total volume: Photoreceptor, central subfield",[1]; [3],−0.001 mm^3
same,"Mean change in total volume: Photoreceptor, inferior subfield",[1]; [3],−0.001 mm^3
same,"Mean change in total volume: Photoreceptor, nasal subfield",[1]; [3],−0.000 mm^3
same,"Mean change in total volume: Photoreceptor, superior subfield",[1]; [3],0.000 mm^3
same,"Mean change in total volume: Photoreceptor, temporal subfield",[1]; [3],−0.000 mm^3
same,"Mean change in total volume: RPEDC, central subfield",[1]; [3],−0.001 mm^3
same,"Mean change in total volume: RPEDC, inferior subfield",[1]; [3],0.001 mm^3
same,"Mean change in total volume: RPEDC, nasal subfield",[1]; [3],0.001 mm^3
same,"Mean change in total volume: RPEDC, superior subfield",[1]; [3],0.003 mm^3
same,"Mean change in total volume: RPEDC, temporal subfield",[1]; [3],0.001 mm^3
same,"Change in EZ defect area, Difference",[1]; [4],0.025 mm^2
same,"Mean change in mean thickness: Inner retina, central subfield, Difference",[1]; [4],0.690 μm
same,"Mean change in mean thickness: Inner retina, foveal center, Difference",[1]; [4],15.404 μm
same,"Mean change in mean thickness: Inner retina, inferior subfield, Difference",[1]; [4],−1.607 μm
same,"Mean change in mean thickness: Inner retina, nasal subfield, Difference",[1]; [4],−0.949 μm
same,"Mean change in mean thickness: Inner retina, superior subfield, Difference",[1]; [4],−4.188 μm
same,"Mean change in mean thickness: Inner retina, temporal subfield, Difference",[1]; [4],0.092 μm
same,"Mean change in mean thickness: Outer retina, central subfield, Difference",[1]; [4],−3.812 μm
same,"Mean change in mean thickness: Outer retina, foveal center, Difference",[1]; [4],−14.794 μm
same,"Mean change in mean thickness: Outer retina, inferior subfield, Difference",[1]; [4],0.460 μm
same,"Mean change in mean thickness: Outer retina, nasal subfield, Difference",[1]; [4],1.388 μm
same,"Mean change in mean thickness: Outer retina, superior subfield, Difference",[1]; [4],0.768 μm
same,"Mean change in mean thickness: Outer retina, temporal subfield, Difference",[1]; [4],−1.158 μm
same,"Mean change in mean thickness: Photoreceptor, central subfield, Difference",[1]; [4],−2.545 μm
same,"Mean change in mean thickness: Photoreceptor, foveal center, Difference",[1]; [4],1.342 μm
same,"Mean change in mean thickness: Photoreceptor, inferior subfield, Difference",[1]; [4],−0.781 μm
same,"Mean change in mean thickness: Photoreceptor, nasal subfield, Difference",[1]; [4],−0.379 μm
same,"Mean change in mean thickness: Photoreceptor, superior subfield, Difference",[1]; [4],−0.161 μm
same,"Mean change in mean thickness: Photoreceptor, temporal subfield, Difference",[1]; [4],−0.694 μm
same,"Mean change in mean thickness: RPEDC, central subfield, Difference",[1]; [4],−0.167 μm
same,"Mean change in mean thickness: RPEDC, foveal center, Difference",[1]; [4],−1.402 μm
same,"Mean change in mean thickness: RPEDC, inferior subfield, Difference",[1]; [4],1.623 μm
same,"Mean change in mean thickness: RPEDC, nasal subfield, Difference",[1]; [4],−0.511 μm
same,"Mean change in mean thickness: RPEDC, superior subfield, Difference",[1]; [4],2.739 μm
same,"Mean change in mean thickness: RPEDC, temporal subfield, Difference",[1]; [4],2.536 μm
same,"Mean change in total volume: Inner retina, central subfield, Difference",[1]; [4],0.001 mm^3
same,"Mean change in total volume: Inner retina, inferior subfield, Difference",[1]; [4],−0.002 mm^3
same,"Mean change in total volume: Inner retina, nasal subfield, Difference",[1]; [4],−0.002 mm^3
same,"Mean change in total volume: Inner retina, superior subfield, Difference",[1]; [4],−0.007 mm^3
same,"Mean change in total volume: Inner retina, temporal subfield, Difference",[1]; [4],0.000 mm^3
same,"Mean change in total volume: Outer retina, central subfield, Difference",[1]; [4],−0.003 mm^3
same,"Mean change in total volume: Outer retina, inferior subfield, Difference",[1]; [4],0.001 mm^3
same,"Mean change in total volume: Outer retina, nasal subfield, Difference",[1]; [4],0.002 mm^3
same,"Mean change in total volume: Outer retina, superior subfield, Difference",[1]; [4],0.001 mm^3
same,"Mean change in total volume: Outer retina, temporal subfield, Difference",[1]; [4],−0.002 mm^3
same,"Mean change in total volume: Photoreceptor, central subfield, Difference",[1]; [4],−0.002 mm^3
same,"Mean change in total volume: Photoreceptor, inferior subfield, Difference",[1]; [4],−0.002 mm^3
same,"Mean change in total volume: Photoreceptor, nasal subfield, Difference",[1]; [4],−0.001 mm^3
same,"Mean change in total volume: Photoreceptor, superior subfield, Difference",[1]; [4],−0.000 mm^3
same,"Mean change in total volume: Photoreceptor, temporal subfield, Difference",[1]; [4],−0.001 mm^3
same,"Mean change in total volume: RPEDC, central subfield, Difference",[1]; [4],−0.000 mm^3
same,"Mean change in total volume: RPEDC, inferior subfield, Difference",[1]; [4],0.002 mm^3
same,"Mean change in total volume: RPEDC, nasal subfield, Difference",[1]; [4],−0.001 mm^3
same,"Mean change in total volume: RPEDC, superior subfield, Difference",[1]; [4],0.005 mm^3
same,"Mean change in total volume: RPEDC, temporal subfield, Difference",[1]; [4],0.004 mm^3
same,"Change in cell viability, treatment alone",[2],did not induce detectable change in cell viability
